These results are taken from patent publication US6881719B2, “β-turn peptidomimetic cyclic compounds” (McGill University, priority 2000, dated 2005).

A short description of series [1]: physchem. As to conditions: water.
The target of series [2] is T1, cell surface TrkA (Homo sapiens, UniProt P04629).
T1 construct: expressed in transfected cells
As to the kind of experiment: FACScan competition of mAb 5C3 binding on 4-3.6 cells. The conditions noted are these: for % Maximal binding of mAb 5C3: mAb 1 nM. An excerpt: The 4-3.6 cells are B104 cells stably transfected with human trkA cDNA, and express equal levels of p75 and TrkA (TrkA+ p75+). For screening agents that activate or antagonize TrkC receptors, NIH3T3 fibroblasts were stably transfected with human TrkC cDNA. These cells respond to the ligand NT-3. For screening agents that activate or antagonize TrkA receptors, NIH3T3 fibroblasts were stably transfected with human TrkA cDNA. These cells respond to the ligand NGF.
FACScan binding assays: 4-3.6 cells (2×10^5) in FACScan binding buffer (PBS, 0.5% BSA, and 0.1% NaN3) were immunostained as described (Saragovi et al., 1998). Saturating anti-TrkA mAb 5C3, or anti-p75 mAb MC192, or control non-binding IgGs were added to cells for 1 hour at 4° C., in the presence or absence of D3 as competitor. Excess primary antibody was washed off, and cells were immunostained with fluorescinated goat-anti-mouse IgG secondary antibody. Cells were acquired on a FACScan and mean channel fluorescence of bell-shaped histograms were analyzed using the LYSIS II program.

Series [3] deals with wild type HEK293 cells. Description: Cell survival control, wild type HEK293 cells. The series is classed as cell-based. The procedure: Cell lines: 5,000 cells/well in protein-free media (PFHM-II, GIBCO, Toronto) containing 0.2% bovine serum albumin (BSA) (Crystalline fraction V, Sigma, St. Louis, Mo.) were seeded in 96 well plates (Falcon, Mississauga, Ontario). The cultures were untreated, or treated with the indicated test or control ligands. Cell viability was quantitated using the MTT assay after 56-72 hours of culture. […] The OD of untreated cells were subtracted. The higher optical density of untreated primary cultures is likely due to cellular heterogeneity and to endogenous production of limiting amounts of growth factors.

In series [4] the target is T2, TrkA-ECD (Homo sapiens, UniProt P04629).
T2 construct: pure soluble TrkA extracellular domain (TrkA-ECD) produced in baculovirus; made in house
T2 sequence (P04629 33-423 limits assumed): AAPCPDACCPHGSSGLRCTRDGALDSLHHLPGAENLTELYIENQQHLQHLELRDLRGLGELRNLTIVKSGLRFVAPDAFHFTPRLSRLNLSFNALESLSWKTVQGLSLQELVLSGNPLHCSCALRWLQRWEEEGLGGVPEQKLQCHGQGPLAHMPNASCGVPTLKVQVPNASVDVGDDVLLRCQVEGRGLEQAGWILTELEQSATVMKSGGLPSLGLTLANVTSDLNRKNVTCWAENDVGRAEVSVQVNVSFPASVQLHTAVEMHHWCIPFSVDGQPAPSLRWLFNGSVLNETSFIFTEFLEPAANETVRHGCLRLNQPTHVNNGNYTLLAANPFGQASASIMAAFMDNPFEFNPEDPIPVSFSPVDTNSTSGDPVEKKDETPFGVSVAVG
Description: ELISA competition of mAb 5C3 binding to immobilized TrkA-ECD. As to conditions: for % Binding of mAb 5C3 to TrkA-ECD: mAb 5C3 2 nM. The protocol: Direct binding studies: were done as described (Saragovi et al., 1998) using 6 ng/well of recombinant baculovirus TrkA-extracellular domain protein (TrkA-ECD) or control bovine serum albumin (BSA, Fraction V, Boehringer Mannheim) immobilized onto 96-well microtest plates. Wells were blocked with binding buffer (BB: PBS with 1% BSA) for 1 hour. Then, 50 ng/well of biotinylated D3 were added as primary reagent in BB for 40 min in the absence or presence of excess non-biotinylated D3 as competitor. Wells were washed 5 times with BB, and horseradish peroxidase (HRP)-coupled avidin (Sigma) was added as secondary reagent for 30 min. Plates were washed in BB, and peroxidase activity was determined colorimetrically using 2,2-azinobis (3-ethylbenzthiazoline sulfonic acid) (ABTS, Sigma). The optical density (OD) was measured at 414 nm in a Microplate reader (Bio-Rad). Assays were repeated at least three times, n=4.
Binding Competition: studies were as described for direct binding assays to TrkA-ECD, except that as primary reagent 50 ng anti-TrkA mAb 5C3/well were added in BB, in the presence or absence of D3 or controls as competitors as described (Saragovi et al., 1998). Wells were washed 5 times with BB, and HRP-coupled goat anti-mouse was added as secondary reagent for 30 min. Plates were washed in BB, and peroxidase activity were determined. Assays were repeated at least three times, n=4.
(In general: In an ELISA, binding on a coated surface is turned into a signal by an enzyme label.)

Bounds are passed on as bounds.

T1 sequence (P04629 33-796): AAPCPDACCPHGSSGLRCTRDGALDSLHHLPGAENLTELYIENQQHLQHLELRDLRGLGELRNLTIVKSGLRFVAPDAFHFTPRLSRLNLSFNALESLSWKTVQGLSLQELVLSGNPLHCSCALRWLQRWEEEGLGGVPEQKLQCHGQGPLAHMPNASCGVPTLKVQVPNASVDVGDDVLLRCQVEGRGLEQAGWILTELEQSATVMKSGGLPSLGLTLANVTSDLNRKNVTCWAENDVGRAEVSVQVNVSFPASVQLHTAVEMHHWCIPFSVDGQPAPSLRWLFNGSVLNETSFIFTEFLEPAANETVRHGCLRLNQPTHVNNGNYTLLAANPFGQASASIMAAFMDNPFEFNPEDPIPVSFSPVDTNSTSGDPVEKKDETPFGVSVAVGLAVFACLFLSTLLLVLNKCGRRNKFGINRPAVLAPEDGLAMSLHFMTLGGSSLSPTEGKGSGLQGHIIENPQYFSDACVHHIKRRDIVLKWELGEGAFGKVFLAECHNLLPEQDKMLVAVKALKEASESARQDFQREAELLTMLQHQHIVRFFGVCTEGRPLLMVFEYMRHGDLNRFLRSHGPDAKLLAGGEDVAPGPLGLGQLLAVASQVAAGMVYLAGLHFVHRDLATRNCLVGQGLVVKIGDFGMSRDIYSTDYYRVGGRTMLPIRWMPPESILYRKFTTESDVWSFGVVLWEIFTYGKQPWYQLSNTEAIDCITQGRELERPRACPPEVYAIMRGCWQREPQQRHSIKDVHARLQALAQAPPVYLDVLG

Usually solubility stands for the dissolved amount per volume that the medium holds. Read a high solubility as a readily soluble substance. As usually defined, the Kd is a measure of binding affinity in units of concentration. By IC50 is commonly meant the midpoint of a concentration-inhibition curve. On to `NCCCC[C@@H]1NC(=O)[C@H](CCC(=O)O)NC(=O)c2cc([N+](=O)[O-])ccc2OCCC(C(=O)NCC(=O)O)NC1=O` (stereo partly drawn) [D3, EKHse-G-OH], for which the solubility in series [1] was ≥ 5000 µg/mL. Further, the Kd is ~2 µM in series [2] (estimated from experimental conditions, read-out: Kd for D3•TrkA interactions) and ~2 µM in series [4] (calculated from the experimental IC50, read-out: Kd for D3•TrkA-ECD interactions). In addition, the half-inhibitory concentration (IC50) in series [2] (intact 4-3.6 cells, on average, read-out: IC50, decrease of mAb 5C3•TrkA interactions) is 4 µM. The “% Maximal binding of mAb 5C3” value came to 95 ± 4% in series [2] (competitor 0.20 μM), 80 ± 3% in series [2] (competitor 1 μM), 53 ± 5% in series [2] (competitor 5 μM) and 33 ± 4% in series [2] (competitor 40 μM). Besides, the protection from apoptosis entry in series [3] is listed as “neither D3 nor NGF protected”. Also, the “% Binding of mAb 5C3 to TrkA-ECD” value in series [4] (competitor 0.05 μM) stood at 100 ± 14%; in series [4] (competitor 0.2 μM) it was 89 ± 8%; in series [4] (competitor 1 μM), 64 ± 10%; in series [4] (competitor 5 μM), 43 ± 12%; in series [4] (competitor 20 μM) it was 38 ± 7%; in series [4] (competitor 40 μM), 31 ± 4%.
